Columns and labels:
anesthetized rats = assay: Anesthetized rat cardiovascular study (mean arterial pressure, heart rate); assay type: in vivo; details: for heart rate, change below baseline / mean arterial pressure, change below baseline: anesthetized rat, FTY720 i.v.
Description: (§1) The cardiovascular effects of FTY720 and BAF312 were tested in anesthetized rats (180–200 g). In brief, male Sprague Dawley rats (Charles River) were anesthetized with Inactin (110 mg/kg i.p.) and a tracheotomy performed. The femoral artery and veins were catheterized for measurement of mean arterial pressure and heart rate, collection of blood samples at 20-min intervals (0.2 mL/sample), and for compound infusion/hydration as previously described, [24]; blood samples were also withdrawn in vehicle-treated control rats. FTY720, infused as a hydrochloride salt (0.1, 0.3, 1.0 mg/kg/20-min free base equivalent solubilized in a 100% PEG-400 vehicle), or BAF312 (0.5, 1.5, 5.0 mg/kg/20-min solubilized in a 100% PEG-400 vehicle) were administered via three escalating 20-min infusions (0.011 mL/min) followed by a 1-hr post-treatment period. A blood sample was withdrawn at 20, 40, 60, and 120-minutes for analysis of plasma concentrations of the parent compound, and in the case of FTY720, also the phosphorylated metabolite, (S)-FTY720-P. Statistical significance (p<0.05) was based on a t-test comparing treatment change from baseline (baseline was defined as the period from −30 to 0 minutes) vs. vehicle controls change from baseline at each timepoint without adjustment for multiple comparisons. In a separate group of anesthetized rats in which left ventricular (LV) contractility was also recorded with a Millar pressure transducer introduced into the left ventricle, BAF312 was infused in the same dosing regimen as the studies described above (0.5, 1.5, 5.0 mg/kg/20-min solubilized in a 100% PEG-400 vehicle) and effects on LV dP/dtmax were recorded.

[1] = Plasma concentrations in repeat-dosing study, satellite rats; assay type: in vivo, rat; details: for concentration at 0 h / concentration at 4 h / concentration at 8 h / concentration at 24 h: male, Sprague Dawley, rat, plasma, po, mean±SEM; for Plasma concentration at Tmax / Terminal plasma concentration at Tmax: satellite rats; for Plasma concentration at Tmax: day 1; for Terminal plasma concentration at Tmax: last day of study
Description: Mean arterial pressure was assessed in conscious, freely moving male Sprague Dawley rats (n = 6–8/group; Charles River) instrumented with telemetry transmitters (DSI-Ponemah) and housed in metabolism cages as previously described, [26]. Tested compounds were solubilized in a 0.5% Methylcellulose/0.015% Tween 80 vehicle that was also dosed alone (p.o./QD, 5 mL/kg) as a control in the study. FTY720 was administered p.o. at 0.3, 1.0, 3.0, 10.0 mg/kg p.o. as a single dose or p.o./QD at 0.5, 1.5, and 5.0 mg/kg in a chronic study. BAF312 was administered p.o/QD at 0.3, 3.0, and 30 mg/kg as a single dose and in a chronic study. Mean arterial pressure and heart rate are shown as 1-hr and/or 24-hr mean values±SEM as described in the results. Blood samples in satellite rats were withdrawn at various timepoints as described in the results for analysis of plasma concentrations of the parent compound and, in the case of FTY720, also the phosphorylated metabolite, (S)-FTY720-P. Statistical analysis for the single-dose acute studies was based on one-way ANOVA to compare the treatment groups vs. vehicle for each time period after dosing (0–24 hrs, 24–48 hrs, and 48–72 hrs); statistical significance (p<0.05) was detected by Dunnett’s post-hoc test to compare treatment with vehicle controls. The statistical analysis in the chronic studies were based on one-way ANOVA with repeated measures to compare the treatment arms; statistical significance (p<0.05) was detected by Dunnett’s post-hoc test to compare treatment with vehicle controls.

[2] = Heart tissue concentrations at the end of the repeat-dosing study; assay type: in vivo; details: rat
Description: In the repeat-dosing study with FTY720 (0.5, 1.5, and 5.0 mg/kg/d), plasma concentrations were also determined ( Table 3 ).

[3] = Plasma concentrations during escalating i.v. infusion in anesthetized rats; assay type: in vivo; details: male, Sprague Dawley, plasma, iv, anesthetized rat, FTY720 i.v.
Description: as §1

[4] = end of 0.1 mg/kg/20 min infusion
[5] = end of 0.3 mg/kg/20 min infusion
[6] = end of 1.0 mg/kg/20 min infusion

CCCCCCCCc1ccc(CCC(N)(CO)CO)cc1 [FTY720]
heart rate, change below baseline (anesthetized rats; [4]): −71±26 beats/min | mean arterial pressure, change below baseline (anesthetized rats; [4]): −9±3 mmHg | heart rate, change below baseline (anesthetized rats; [5]): −139±37 beats/min | mean arterial pressure, change below baseline (anesthetized rats; [5]): −22±4 mmHg | heart rate, change below baseline (anesthetized rats; [6]): −173±26 beats/min | mean arterial pressure, change below baseline (anesthetized rats; [6]): −24±4 mmHg | effect on heart rate of acute i.v. infusion (anesthetized rats; anesthetized rats, FTY720 0.1, 0.3, 1.0 mg/kg/20 min or BAF312 0.5, 1.5, 5.0 mg/kg/20 min): acute bradycardia | concentration at 0 h ([1]; 0.5 mg/kg/day, FTY720 0.5 mg/kg/d p.o., Terminal (last day)): 18 ± 2 nM | concentration at 4 h ([1]; 0.5 mg/kg/day, FTY720 0.5 mg/kg/d p.o., Terminal (last day), 4 hr post-dose): 24 ± 3 nM | concentration at 8 h ([1]; 0.5 mg/kg/day, FTY720 0.5 mg/kg/d p.o., Terminal (last day), 8 hr post-dose): 63 ± 37 nM | concentration at 24 h ([1]; 0.5 mg/kg/day, FTY720 0.5 mg/kg/d p.o., Terminal (last day), 24 hr post-dose): 40 ± 27 nM | concentration at 4 h ([1]; 0.5 mg/kg/day, FTY720 0.5 mg/kg/d p.o., Day 1, 4 hr post-dose): 9 ± 1 nM | concentration at 8 h ([1]; 0.5 mg/kg/day, FTY720 0.5 mg/kg/d p.o., Day 1, 8 hr post-dose): 13 ± 2 nM | concentration at 24 h ([1]; 0.5 mg/kg/day, FTY720 0.5 mg/kg/d p.o., Day 1, 24 hr post-dose): 8 ± 1 nM | concentration at 0 h ([1]; 1.5 mg/kg/day, FTY720 1.5 mg/kg/d p.o., Terminal (last day)): 58 ± 7 nM | concentration at 4 h ([1]; 1.5 mg/kg/day, FTY720 1.5 mg/kg/d p.o., Terminal (last day), 4 hr post-dose): 60 ± 6 nM | concentration at 8 h ([1]; 1.5 mg/kg/day, FTY720 1.5 mg/kg/d p.o., Terminal (last day), 8 hr post-dose): 81 ± 4 nM | concentration at 24 h ([1]; 1.5 mg/kg/day, FTY720 1.5 mg/kg/d p.o., Terminal (last day), 24 hr post-dose): 44 ± 5 nM | concentration at 4 h ([1]; 1.5 mg/kg/day, FTY720 1.5 mg/kg/d p.o., Day 1, 4 hr post-dose): 45 ± 4 nM | concentration at 8 h ([1]; 1.5 mg/kg/day, FTY720 1.5 mg/kg/d p.o., Day 1, 8 hr post-dose): 53 ± 9 nM | concentration at 24 h ([1]; 1.5 mg/kg/day, FTY720 1.5 mg/kg/d p.o., Day 1, 24 hr post-dose): 34 ± 4 nM | concentration at 0 h ([1]; 5 mg/kg/day, FTY720 5.0 mg/kg/d p.o., Terminal (last day)): 207 ± 27 nM | concentration at 4 h ([1]; 5 mg/kg/day, FTY720 5.0 mg/kg/d p.o., Terminal (last day), 4 hr post-dose): 229 ± 21 nM | concentration at 8 h ([1]; 5 mg/kg/day, FTY720 5.0 mg/kg/d p.o., Terminal (last day), 8 hr post-dose): 176 ± 37 nM | concentration at 24 h ([1]; 5 mg/kg/day, FTY720 5.0 mg/kg/d p.o., Terminal (last day), 24 hr post-dose): 134 ± 21 nM | concentration at 4 h ([1]; 5 mg/kg/day, FTY720 5.0 mg/kg/d p.o., Day 1, 4 hr post-dose): 98 ± 14 nM | concentration at 8 h ([1]; 5 mg/kg/day, FTY720 5.0 mg/kg/d p.o., Day 1, 8 hr post-dose): 102 ± 4 nM | concentration at 24 h ([1]; 5 mg/kg/day, FTY720 5.0 mg/kg/d p.o., Day 1, 24 hr post-dose): 17 ± 40 nM | Plasma concentration at Tmax ([1]; FTY720 0.5 mg/kg/d p.o.): 13 ± 2 nM | Terminal plasma concentration at Tmax ([1]; FTY720 0.5 mg/kg/d p.o.): 63 ± 37 nM | Plasma concentration at Tmax ([1]; FTY720 1.5 mg/kg/d p.o.): 53 ± 9 nM | Terminal plasma concentration at Tmax ([1]; FTY720 1.5 mg/kg/d p.o.): 81 ± 4 nM | Plasma concentration at Tmax ([1]; FTY720 5.0 mg/kg/d p.o.): 120 ± 17 nM | Terminal plasma concentration at Tmax ([1]; FTY720 5.0 mg/kg/d p.o.): 229 ± 21 nM | mean tissue concentration in heart ([2]; FTY720 0.5 mg/kg/d p.o.): 379 ng/g | mean tissue concentration in heart ([2]; FTY720 1.5 mg/kg/d p.o.): 490 ng/g | mean tissue concentration in heart ([2]; FTY720 5.0 mg/kg/d p.o.): 1848 ng/g | concentration at 20 min [3, 4]: 54 ± 9 nM | concentration at 40 min [3, 5]: 198 ± 13 nM | concentration at 60 min [3, 6]: 375 ± 46 nM | concentration at 120 min ([3]; end of 60-min post-treatment period): 121 ± 5 nM
